Results taken from ChEMBL document CHEMBL1201862, “PubChem BioAssay data set” (2004).
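48-hour exposure; five concentrations; linearly interpolated endpoints. GI50: concentration for 50% inhibition of growth.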 The source made the active and inactive calls. Cut-off read from the data, not from the text of the source: active = GI50 up to about 1.1 µM and inactive = higher.

Key:
Test in all cases: growth of human tumour cells (NCI), 48 h
MDA-MB-435 = system: MDA-MB-435
IGROV-1 = system: IGROV-1
M14 = system: M14
RPMI-8226 = system: RPMI-8226
KM12 = system: KM12
SW-620 = system: SW-620
HCT-116 = system: HCT-116
SN12C = system: SN12C
SK-MEL-2 = system: SK-MEL-2
HOP-62 = system: HOP-62
HCC 2998 = system: HCC 2998
ACHN = system: ACHN
SF-295 = system: SF-295
Hs-578T = system: Hs-578T
CCRF-CEM = system: CCRF-CEM
SNB-75 = system: SNB-75
SF-539 = system: SF-539
MOLT-4 = system: MOLT-4
COLO 205 = system: COLO 205
RXF 393 = system: RXF 393
NCI-H23 = system: NCI-H23
SK-OV-3 = system: SK-OV-3
HL-60 = system: HL-60
SNB-19 = system: SNB-19
EKVX = system: EKVX
OVCAR-5 = system: OVCAR-5
UACC-62 = system: UACC-62
MCF7 = system: MCF7
TK-10 = system: TK-10
U-251 = system: U-251
BT-549 = system: BT-549
UACC-257 = system: UACC-257
T47D = system: T47D
OVCAR-4 = system: OVCAR-4
NCI/ADR-RES = system: NCI/ADR-RES
SK-MEL-28 = system: SK-MEL-28
OVCAR-3 = system: OVCAR-3
NCI-H226 = system: NCI-H226
OVCAR-8 = system: OVCAR-8
SF-268 = system: SF-268
HOP-92 = system: HOP-92
SK-MEL-5 = system: SK-MEL-5
HCT-15 = system: HCT-15
A498 = system: A498
HT-29 = system: HT-29
K562 = system: K562
A549 = system: A549
UO-31 = system: UO-31
MDA-N = system: MDA-N
MDA-MB-231 = system: MDA-MB-231
786-0 = system: 786-0
DU-145 = system: DU-145
NCI-H460 = system: NCI-H460
PC-3 = system: PC-3
CAKI-1 = system: CAKI-1
LOX IMVI = system: LOX IMVI
NCI-H522 = system: NCI-H522
Malme-3M = system: Malme-3M

For `CC(=O)Nc1ccc(C(=O)NN2C(=O)CSC2c2ccc(O)cc2)cc1` (configuration not stated), the GI50 (MDA-MB-435) was > 100 µM (inactive), the GI50 (IGROV-1) was > 100 µM (inactive) and the GI50 (M14) was > 100 µM (inactive). The GI50 (RPMI-8226) was > 100 µM (inactive), the GI50 (KM12) was > 100 µM (inactive) and the GI50 (SW-620) was > 100 µM (inactive). The GI50 (HCT-116) was > 100 µM (inactive), the GI50 (SN12C) was > 100 µM (inactive) and the GI50 (SK-MEL-2) was > 100 µM (inactive). The GI50 (HOP-62) was > 100 µM (inactive), the GI50 (HCC 2998) was > 100 µM (inactive) and the GI50 (ACHN) was > 100 µM (inactive). For the same molecule, the GI50 (SF-295) was > 100 µM (inactive), the GI50 (Hs-578T) was > 100 µM (inactive) and the GI50 (CCRF-CEM) was > 100 µM (inactive). The GI50 (SNB-75) was 91.6 µM (inactive), the GI50 (SF-539) was > 100 µM (inactive) and the GI50 (MOLT-4) was > 100 µM (inactive). For the same molecule, the GI50 (COLO 205) was > 100 µM (inactive), the GI50 (RXF 393) was > 100 µM (inactive) and the GI50 (NCI-H23) was > 100 µM (inactive). For the same molecule, the GI50 (SK-OV-3) was > 100 µM (inactive), the GI50 (HL-60) was > 100 µM (inactive) and the GI50 (SNB-19) was > 100 µM (inactive). The GI50 (EKVX) was > 100 µM (inactive), the GI50 (OVCAR-5) was > 100 µM (inactive) and the GI50 (UACC-62) was > 100 µM (inactive). For the same molecule, the GI50 (MCF7) was > 100 µM (inactive), the GI50 (TK-10) was > 100 µM (inactive) and the GI50 (U-251) was > 100 µM (inactive). The GI50 (BT-549) was > 100 µM (inactive), the GI50 (UACC-257) was > 100 µM (inactive) and the GI50 (T47D) was > 100 µM (inactive). The GI50 (OVCAR-4) was > 100 µM (inactive), the GI50 (NCI/ADR-RES) was > 100 µM (inactive) and the GI50 (SK-MEL-28) was > 100 µM (inactive). The GI50 (OVCAR-3) was > 100 µM (inactive), the GI50 (NCI-H226) was > 100 µM (inactive) and the GI50 (OVCAR-8) was > 100 µM (inactive). For the same molecule, the GI50 (SF-268) was > 100 µM (inactive), the GI50 (HOP-92) was > 100 µM (inactive) and the GI50 (SK-MEL-5) was > 100 µM (inactive). The GI50 (HCT-15) was over 100 µM, the GI50 (A498) was > 100 µM (inactive) and the GI50 (HT-29) was > 100 µM (inactive). The GI50 (K562) was > 100 µM (inactive), the GI50 (A549) was > 100 µM (inactive) and the GI50 (UO-31) was > 100 µM (inactive). For the same molecule, the GI50 (MDA-N) was > 100 µM (inactive), the GI50 (MDA-MB-231) was > 100 µM (inactive) and the GI50 (786-0) was > 100 µM (inactive). The GI50 (DU-145) was > 100 µM (inactive) and the GI50 (NCI-H460) was > 100 µM (inactive).

For `CCOC(=O)c1sc2nc(SC)nc3c2c1NCN3c1ccccc1Cl`, the GI50 (MDA-MB-435) was > 100 µM (inactive), the GI50 (IGROV-1) was 63 µM (inactive) and the GI50 (M14) was > 100 µM (inactive). The GI50 (RPMI-8226) was > 100 µM (inactive), the GI50 (KM12) was > 100 µM (inactive) and the GI50 (SW-620) was 80.2 µM (inactive). For the same molecule, the GI50 (HCT-116) was 31.8 µM (inactive), the GI50 (SN12C) was > 100 µM (inactive) and the GI50 (PC-3) was 29.4 µM (inactive). The GI50 (SK-MEL-2) was 97.3 µM (inactive), the GI50 (HOP-62) was 40.9 µM (inactive) and the GI50 (HCC 2998) was 56.5 µM (inactive). For the same molecule, the GI50 (ACHN) was 55.1 µM (inactive), the GI50 (SF-295) was 52.6 µM (inactive) and the GI50 (Hs-578T) was 35.4 µM (inactive). For the same molecule, the GI50 (CCRF-CEM) was > 100 µM (inactive), the GI50 (SNB-75) was 24.8 µM (inactive) and the GI50 (MOLT-4) was > 100 µM (inactive). The GI50 (COLO 205) was > 100 µM (inactive), the GI50 (CAKI-1) was 50.8 µM (inactive) and the GI50 (RXF 393) was 19.3 µM (inactive). The GI50 (NCI-H23) was 42.2 µM (inactive), the GI50 (SK-OV-3) was 56.6 µM (inactive) and the GI50 (SNB-19) was 48.3 µM (inactive). The GI50 (OVCAR-5) was > 100 µM (inactive), the GI50 (UACC-62) was 37.4 µM (inactive) and the GI50 (TK-10) was 37.8 µM (inactive). The GI50 (U-251) was 43.8 µM (inactive), the GI50 (BT-549) was 42.7 µM (inactive) and the GI50 (UACC-257) was 48.8 µM (inactive). For the same molecule, the GI50 (T47D) was 23.7 µM (inactive), the GI50 (OVCAR-4) was 38.5 µM (inactive) and the GI50 (NCI/ADR-RES) was 40.2 µM (inactive). For the same molecule, the GI50 (SK-MEL-28) was 55.2 µM (inactive), the GI50 (OVCAR-3) was 84.5 µM (inactive) and the GI50 (LOX IMVI) was 35.6 µM (inactive). The GI50 (NCI-H226) was > 100 µM (inactive), the GI50 (OVCAR-8) was 31.7 µM (inactive) and the GI50 (SF-268) was 38.7 µM (inactive). The GI50 (NCI-H522) was 26.5 µM (inactive), the GI50 (HOP-92) was 25.3 µM (inactive) and the GI50 (SK-MEL-5) was 31.5 µM (inactive). For the same molecule, the GI50 (Malme-3M) was 31.8 µM (inactive), the GI50 (HCT-15) was 71.1 µM and the GI50 (A498) was 37.8 µM (inactive). The GI50 (HT-29) was 72.1 µM (inactive), the GI50 (K562) was > 100 µM (inactive) and the GI50 (A549) was 38.7 µM (inactive). For the same molecule, the GI50 (UO-31) was 70.5 µM (inactive), the GI50 (MDA-N) was 71.4 µM (inactive) and the GI50 (MDA-MB-231) was 76.4 µM (inactive). The GI50 (786-0) was 24.3 µM (inactive), the GI50 (DU-145) was 75.3 µM (inactive) and the GI50 (NCI-H460) was 30.7 µM (inactive).
